Data from ChEMBL document CHEMBL1142846, “Synthesis and cytotoxic activity of platinum complex immobilized by branched polyethylene glycol” (Bioorg Med Chem Lett, 2005).

Test: Inhibition concentration against C6 […] cells by the 3-(4,5-dimethylthiazol-2-yl)-2,5-diphenyltetrazoliumbromide (MTT) method
Format: functional, cell-based

## CISPLATIN
  IC50: 5.27 µM
